From ChEMBL document CHEMBL4699400, “Discovery of a novel kinase hinge binder fragment by dynamic undocking” (RSC Med Chem, 2020)
Calls of active or inactive are those of the source. No cut-off for these calls is given here.

Experiments:
[1] = target: T1, Maternal embryonic leucine zipper kinase (Homo sapiens, UniProt Q14680); assay: Displacement of kinase tracer 236 from human N-terminal His-tagged MELK (1 to 337 residues) expressed in Escherichia coli BL21 pLysS by microscale thermophoresis assay
Target sequence in this assay (Q14680 whole entry, the tested form may be a part): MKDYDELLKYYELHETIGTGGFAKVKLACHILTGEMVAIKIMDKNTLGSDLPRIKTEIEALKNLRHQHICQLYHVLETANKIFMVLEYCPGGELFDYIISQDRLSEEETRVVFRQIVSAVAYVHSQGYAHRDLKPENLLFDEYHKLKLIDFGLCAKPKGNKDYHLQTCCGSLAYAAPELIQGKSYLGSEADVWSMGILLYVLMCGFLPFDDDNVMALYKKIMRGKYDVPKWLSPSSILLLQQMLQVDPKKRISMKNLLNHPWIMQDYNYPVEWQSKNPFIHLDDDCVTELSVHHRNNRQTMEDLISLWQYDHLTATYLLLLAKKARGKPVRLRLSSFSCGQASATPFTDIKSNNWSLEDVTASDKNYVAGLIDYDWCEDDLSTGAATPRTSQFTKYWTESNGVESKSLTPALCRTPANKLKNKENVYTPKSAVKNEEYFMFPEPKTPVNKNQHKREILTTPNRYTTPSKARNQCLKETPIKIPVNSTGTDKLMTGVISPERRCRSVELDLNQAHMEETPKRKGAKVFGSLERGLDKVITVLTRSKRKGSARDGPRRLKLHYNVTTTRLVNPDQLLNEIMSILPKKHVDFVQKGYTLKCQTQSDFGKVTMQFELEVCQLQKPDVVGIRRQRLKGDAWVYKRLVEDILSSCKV

[2] = target: T1, Maternal embryonic leucine zipper kinase; assay: Binding affinity to human N-terminal His-tagged MELK (1 to 337 residues) expressed in Escherichia coli BL21 pLysS at 50 uM by STD-NMR analysis
Target sequence in this assay (Q14680 whole entry, looked up, the tested form may be a part): as the sequence (Q14680 whole entry, the tested form may be a part) above

EC50 [1]: 21.1 µM
Ki [1]: 5.47 µM
Activity [2]: Active
Structure (SMILES): Nc1cccc2cc[nH]c(=O)c12
